One experiment addresses dopamine D-2 receptor (Rattus norvegicus, UniProt P61169). The experiment in a line: biochemical. It counts as binding. Here is the method:
Homogenized rat caudate was the source of the D-2 receptors. […] The molar affinity of the compound for the receptor binding site was calculated by the same method used for the D-1 receptor assay, assuming a competitive interaction between the compound and the radiolabeled ligand.

The target of experiment [1] is dopamine D-1 receptor (Rattus norvegicus, UniProt P18901). Description: biochemical. To be noted: D-1 Ki, rat caudate, [125I]SCH-23982.
From the text: The compounds compete with the radiolabeled ligand for occupancy of the receptors and the molar potency of each compound was quantified.
The Ki values are inversely proportional to the affinity of the compound for the receptor.
The subject of experiment [2] is dopamine D-1 receptor. The following applies: for Intrinsic Activity (adenylate cyclase assay): dopamine = 100, goldfish retina or rat striatum; for EC50: read-out: EC50 (agonist activity in adenylate cyclase assay), tissue from goldfish retina or rat striatum.
Method: In order to determine agonist activity, cell-free tissue homogenates are incubated in an ionic buffer solution containing ATP and the compound being evaluated. The tissue was obtained from either goldfish retina or rat striatum.
Where [3] appears, read: rat caudate, [125I]-p-aminophenylethyl spiroperidol, read-out: D-2 Ki.

49 compounds from patent US5621133A (priority 1995, dated 1997) can be followed below.

Counter-ions that a name gives are not always drawn. Like-named read-outs stand apart in the source and are kept apart here.

As usually defined, the Ki is a dissociation constant, usually derived from enzyme kinetics or from competition with a known ligand. One may read the EC50 as the concentration that produces a half-maximal response.

Chain of dopamine D-1 receptor (Rattus norvegicus, UniProt P18901) (P18901 whole entry): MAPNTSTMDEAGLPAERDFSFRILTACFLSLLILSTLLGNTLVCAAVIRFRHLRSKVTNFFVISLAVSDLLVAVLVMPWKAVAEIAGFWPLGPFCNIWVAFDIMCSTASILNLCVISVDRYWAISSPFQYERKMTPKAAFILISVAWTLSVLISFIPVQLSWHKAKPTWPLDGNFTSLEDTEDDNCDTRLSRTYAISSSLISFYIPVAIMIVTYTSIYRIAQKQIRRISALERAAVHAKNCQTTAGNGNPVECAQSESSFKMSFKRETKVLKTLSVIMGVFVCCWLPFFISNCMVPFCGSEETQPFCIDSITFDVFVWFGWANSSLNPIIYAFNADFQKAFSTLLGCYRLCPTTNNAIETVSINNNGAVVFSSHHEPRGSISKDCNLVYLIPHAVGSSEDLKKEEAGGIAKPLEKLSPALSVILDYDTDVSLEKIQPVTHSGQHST
Chain of dopamine D-2 receptor (P61169 whole entry): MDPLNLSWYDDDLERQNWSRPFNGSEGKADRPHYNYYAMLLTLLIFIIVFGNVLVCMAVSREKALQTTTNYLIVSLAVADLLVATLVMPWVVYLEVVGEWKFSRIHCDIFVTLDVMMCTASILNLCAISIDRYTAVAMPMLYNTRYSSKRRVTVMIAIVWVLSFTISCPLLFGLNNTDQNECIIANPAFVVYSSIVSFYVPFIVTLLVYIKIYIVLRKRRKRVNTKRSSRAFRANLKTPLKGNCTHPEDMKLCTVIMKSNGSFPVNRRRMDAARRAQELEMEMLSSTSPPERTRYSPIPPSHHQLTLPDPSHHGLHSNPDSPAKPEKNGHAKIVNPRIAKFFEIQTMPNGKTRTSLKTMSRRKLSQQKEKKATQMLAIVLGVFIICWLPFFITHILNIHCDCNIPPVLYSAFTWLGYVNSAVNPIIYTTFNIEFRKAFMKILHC

Consider `NC[C@@H]1O[C@H](C2CCCCC2)Cc2c1cc(Br)c(O)c2O` (relative stereo) [Example 81], for which the Ki on dopamine D-2 receptor (setting [3]) was 4600 nM. The same compound returned an inhibition constant Ki on dopamine D-1 receptor [1] of 210 nM. In the experiment on dopamine D-1 receptor [2], the “Intrinsic Activity (adenylate cyclase assay)” value (from here on “Intrinsic Activity”) was 61 and the EC50 stood at 67 nM.

Regarding `NC[C@@H]1O[C@H](C2CCCCC2)CCc2c1ccc(O)c2O` (relative stereo) [Example 176, [1,3-cis]1-Aminomethyl-3-cyclohexyl-6,7-dihydroxy-1,3,4,5-tetrahydro-2-benzoxepin Hydrochloride], the inhibition constant (Ki) on dopamine D-2 receptor (setting [3]) stood at 2600 nM; on dopamine D-1 receptor [1], 650 nM. The “Intrinsic Activity” value in the experiment on dopamine D-1 receptor [2] was 90. At dopamine D-1 receptor [2], the half-maximal effective concentration (EC50) is 320 nM.

With `CC(C)(C)C1Cc2c(ccc(O)c2O)C(CN)O1` (stereo not drawn) [Example 102], the inhibition constant (Ki) on dopamine D-2 receptor (setting [3]) was above 10000 nM. In the experiment with dopamine D-1 receptor [2], the “Intrinsic Activity” value is 113.

As for `NCC[C@H]1Cc2c(ccc(O)c2O)[C@@H](CN)O1` (relative stereo) [Example 159], the Ki on dopamine D-2 receptor (setting [3]) came out at 3700 nM; on dopamine D-1 receptor [1] it was 3100 nM. Moreover, the “Intrinsic Activity” value in the experiment on dopamine D-1 receptor [2] turned out to be 129. Also, the EC50 on dopamine D-1 receptor [2] stood at 150 nM.

As for `NC[C@@H]1O[C@H](CC2CCCC2)Cc2c1ccc(O)c2O` (relative stereo) [Example 78], the Ki on dopamine D-2 receptor (setting [3]) was 810 nM. Also, the affinity on dopamine D-1 receptor [1] corresponds to a Ki of 49 nM. In addition, in the experiment on dopamine D-1 receptor [2], the “Intrinsic Activity” value worked out at 147 and the EC50 was found to be 15 nM.

`Oc1ccc2c(c1O)CC(C13CC4CC(CC(C4)C1)C3)C1=C2CNCC1` (stereo not drawn) [Example 238]: the Ki at dopamine D-2 receptor (setting [3]) was above 10000 nM; on dopamine D-1 receptor [1] it was 5100 nM.

Take `NC[C@@H]1O[C@H](C23CC4CC(CC(C4)C2)C3)Cc2c1cc(F)c(O)c2O` [Example 103]: the Ki on dopamine D-2 receptor (setting [3]) was 2000 nM. Besides, the “Intrinsic Activity” value with dopamine D-1 receptor [2] stood at 88.

As to `CCCCC[C@H]1Cc2c(ccc(O)c2O)[C@@H](CNC)O1` (relative stereo) [Example 144], the Ki on dopamine D-2 receptor (setting [3]) was determined as 91 nM. For the same compound, the “Intrinsic Activity” value with dopamine D-1 receptor [2] is 107.

As to `NC[C@@H]1O[C@H](c2ccccc2)Cc2c1ccc(O)c2O` [Example 54], the Ki at dopamine D-2 receptor (setting [3]) worked out at 910 nM.

Turning to `CCCC1(CCC)C=C(CN)c2ccc(O)c(O)c2C1` [Example 192], the figures for the Ki on dopamine D-2 receptor (setting [3]) and on dopamine D-1 receptor [1] were above 10000 nM and 3200 nM, respectively.

Turning to `CC(C)(C)[C@H]1Cc2c(ccc(O)c2O)[C@@H](CN)O1` (relative stereo) [Example 100], the inhibitory constant (Ki) at dopamine D-2 receptor (setting [3]) was determined as 54000 nM.

For the compound `CN1CCC2=C(C1)c1ccc(O)c(O)c1CC2CC1CCCC1` (stereo not drawn) [Example 245], the inhibition constant Ki at dopamine D-2 receptor (setting [3]) is 180 nM; at dopamine D-1 receptor [1], 350 nM.

For `C=CCCCC[C@@H]1Cc2c(ccc(O)c2O)[C@H](CN)O1` (relative stereo) [Example 66], the Ki at dopamine D-2 receptor (setting [3]) was found to be 640 nM. The “Intrinsic Activity” value in the experiment on dopamine D-1 receptor [2] was 84.

As for `Br.N[C@@H]1CCc2cc(O)c(O)c3c2[C@H]1C[C@H](c1ccccc1)C3` (relative stereo) [Example 182, [1R*,8S*,9aR*]1-Amino-5,6-dihydroxy-8-phenyl-2,3,7,8,9,9a-hexahydro-phenalene Hydrobromide], the Ki on dopamine D-2 receptor (setting [3]) is 2200 nM. For the same compound, in the experiment on dopamine D-1 receptor [2], the “Intrinsic Activity” value is reported as 65.

`NC[C@H]1O[C@@H](C2CCCCC2)Cc2c1ccc(O)c2O` (relative stereo) [Example 50]: the Ki on dopamine D-2 receptor (D-2 Ki) was determined as 1200 nM.

Consider `Oc1ccc2c(c1O)C[C@@H](c1ccccc1)C1=C2CNCC1` [Example 201], for which the Ki at dopamine D-2 receptor (setting [3]) came out at 1500 nM. Besides, the “Intrinsic Activity” value in the experiment with dopamine D-1 receptor [2] stood at 110.

For `Br.N[C@H]1CCc2cc(O)c(O)c3c2[C@H]1C[C@H](c1ccccc1)C3` (relative stereo) [Example 183, [1S*,8S*,9aR*]1-Amino-5,6-dihydroxy-8-phenyl-2,3,7,8,9,9a-hexahydrophenalene Hydrobromide], on dopamine D-2 receptor (setting [3]), the Ki is above 10000 nM. The “Intrinsic Activity” value in the experiment on dopamine D-1 receptor [2] is 56.

`CC(=O)NCC1=CC(c2ccccc2)Cc2c1ccc(O)c2O` (stereo not drawn) [Example 213, 1-Acetylaminomethyl-3-phenyl-5,6-dihydroxy-3,4-dihydronaphthalene]: in the experiment with dopamine D-1 receptor [2], the “Intrinsic Activity” value came out at 70.

Regarding `CN(C)C[C@H]1O[C@@H](CC2CCCCC2)Cc2c1ccc(O)c2O` (relative stereo) [Example 148A], the Ki was 2600 nM on dopamine D-2 receptor (setting [3]) and 710 nM at dopamine D-1 receptor [1].

As to `NCC1=CC2(CCCCCC2)Cc2c1ccc(O)c2O` [Example 188, 1'-Aminomethyl-5,6'-dihydroxyspiro[cycloheptane-1,3'-(3',4'-dihydro-2'-H-naphthalene)]hydrobromide], the inhibition constant Ki was 7000 nM at dopamine D-2 receptor (setting [3]) and 2000 nM on dopamine D-1 receptor [1].

In the case of `NC[C@H]1O[C@@H](C23CC4CC(CC(C4)C2)C3)Cc2c1cc(F)c(O)c2O` (relative stereo) [Example 106], the Ki on dopamine D-2 receptor (setting [3]) was above 10000 nM. The “Intrinsic Activity” value in the experiment with dopamine D-1 receptor [2] is listed as 65.

Turning to `C=CC[C@H]1Cc2c(ccc(O)c2O)[C@@H](CN)O1` (relative stereo) [Example 101], the “Intrinsic Activity” value with dopamine D-1 receptor [2] is given as 119.

`CC(C)(C)[C@H]1Cc2c(ccc(O)c2O)[C@@H](CN)O1` (relative stereo) [Example 48, [1,3-cis]1-Aminomethyl 3-t-butyl-5,6-dihydroxy-3,4-dihydro-1H-2-benzopyran Hydrochloride]: on dopamine D-2 receptor (setting [3]), the Ki was 13000 nM. Also, in the experiment on dopamine D-1 receptor [2], the “Intrinsic Activity” value turned out to be 112.

The compound `CCCC1(CCC)Cc2c(ccc(O)c2O)C(CN)C1` (stereo not drawn) [Example 198] displayed a Ki at dopamine D-1 receptor [1] of 3700 nM.

Consider `Oc1ccc2c(c1O)C[C@@H](c1ccccc1)O[C@H]2[C@@H]1CCCN1` [Example 124], for which the Ki on dopamine D-2 receptor (setting [3]) worked out at 470 nM; on dopamine D-1 receptor [1] it was 1900 nM.

As to `Oc1ccc2c(c1O)CC(c1ccccc1)C1=C2CNCC1` (stereo not drawn) [Example 200], the Ki on dopamine D-2 receptor (setting [3]) amounted to 3300 nM. Also, in the experiment with dopamine D-1 receptor [2], the “Intrinsic Activity” value is on record as 120.

Regarding `CC(C)(C)CC1Cc2c(ccc(O)c2O)C2=C1CCNC2` (stereo not drawn) [Example 242], the values for the inhibitory constant (Ki) on dopamine D-2 receptor (setting [3]) and at dopamine D-1 receptor [1] were 2000 nM and 1500 nM, respectively.

With `Oc1ccc2c(c1O)CC1(CCCCCC1)C1CCNCC21` (stereo not drawn) [Example 252], the “Intrinsic Activity” value with dopamine D-1 receptor [2] is 49.

Turning to `CNC[C@H]1O[C@@H](C2CCCCC2)Cc2c1ccc(O)c2O` (relative stereo) [Example 111, [1,3-cis]3-Cyclohexyl-5,6-dihydroxy-1-methylaminomethyl-3,4-dihydro-1H-2-benzopyran Hydrochloride], at dopamine D-2 receptor (setting [3]), the Ki amounted to 720 nM.

`COC(=O)CCC(=O)Oc1ccc2c(c1OC(=O)CCC(=O)OC)CC(c1ccccc1)C=C2CN` (stereo not drawn) [Example 19]: the results for the inhibitory constant (Ki) at dopamine D-2 receptor (setting [3]) and at dopamine D-1 receptor [1] were above 10000 nM and 600 nM, respectively.

For `NC[C@@H]1O[C@H](c2cccc(O)c2)Cc2c1ccc(O)c2O` (relative stereo) [Example 70], at dopamine D-2 receptor (setting [3]), the Ki worked out at 650 nM.

For the compound `NCC1OC(c2ccccc2)Cc2c1ccc(O)c2O` (stereo not drawn) [Example 96], the Ki on dopamine D-2 receptor (setting [3]) stood at 870 nM.

On to `NC[C@@H]1O[C@H](C(c2ccccc2)c2ccccc2)Cc2c1ccc(O)c2O` (relative stereo) [Example 71], for which the inhibition constant Ki on dopamine D-2 receptor (setting [3]) is 2800 nM.

On to `C=CCN(C)C[C@H]1O[C@@H](C2CCCCC2)Cc2c1ccc(O)c2O` (relative stereo) [Example 120], for which the Ki on dopamine D-2 receptor (setting [3]) is 3000 nM.

Turning to `C#CC[C@H]1Cc2c(ccc(O)c2O)[C@@H](CN)O1` (relative stereo) [Example 110, [1,3-cis]1-Aminomethyl-5,6-dihydroxy-3-(3'-prop-1'-ynyl)-3,4-dihydro-1H-2-benzopyran Hydrochloride], the inhibition constant (Ki) at dopamine D-2 receptor (setting [3]) worked out at 1100 nM.

With `NC[C@H]1O[C@@H](c2ccccc2)Cc2c1ccc(O)c2O` (relative stereo) [Example 49], at dopamine D-2 receptor (setting [3]), the inhibition constant (Ki) was 1000 nM.

As to `CC(C)(C)[C@@H]1Cc2c(ccc(O)c2O)[C@H](CN)C1` (relative stereo) [Example 195], the Ki on dopamine D-1 receptor [1] came to 250 nM. Besides, in the experiment on dopamine D-1 receptor [2], the “Intrinsic Activity” value worked out at 73 and the EC50 came to 400 nM.

With `CC(C)(C)CC1C=C(CN)c2ccc(O)c(O)c2C1` (stereo not drawn) [Example 233], the Ki was above 10000 nM on dopamine D-2 receptor (setting [3]) and 3200 nM at dopamine D-1 receptor [1].

`Oc1ccc2c(c1O)CC(c1ccccc1)C1=C2CNCC1` (stereo not drawn) [Example 239]: the inhibition constant Ki at dopamine D-2 receptor (setting [3]) was determined as 2000 nM. The “Intrinsic Activity” value in the experiment on dopamine D-1 receptor [2] was determined as 103.

Take `Oc1ccc2c(c1O)CC(C1CCCCC1)C1=C2CNCC1` (stereo not drawn) [Example 202]: on dopamine D-2 receptor (setting [3]), the Ki amounted to 1600 nM. Besides, in the experiment on dopamine D-1 receptor [2], the “Intrinsic Activity” value is recorded as 84.

Turning to `CCCC1(CCC)Cc2c(ccc(O)c2O)C2=C1CCNC2` [Example 208], the Ki was found to be 3100 nM on dopamine D-2 receptor (setting [3]) and 530 nM at dopamine D-1 receptor [1].

For the compound `C#CCN(C)C[C@H]1O[C@@H](C2CCCCC2)Cc2c1ccc(O)c2O` (relative stereo) [Example 119], the Ki on dopamine D-2 receptor (setting [3]) was above 10000 nM.

Consider `Oc1ccc2c(c1O)CC1(CCCCCCC1)C1=C2CNCC1` [Example 207], for which the Ki at dopamine D-2 receptor (setting [3]) came to 1200 nM. In addition, in the experiment with dopamine D-1 receptor [2], the “Intrinsic Activity” value is given as 64.

For `NCC1=CC(c2ccccc2)Cc2c1ccc(OC(=O)NCc1ccccc1)c2OC(=O)NCc1ccccc1` (stereo not drawn) [Example 30], the Ki on dopamine D-2 receptor (D-2 Ki, rat caudate, [125I]-p-aminophenylethyl spiroperidol) is 32000 nM; at dopamine D-1 receptor [1] it was above 10000 nM.

For the compound `C=CCN(C)C[C@H]1O[C@@H](CCCCCC)Cc2c1ccc(O)c2O` (relative stereo) [Example 121], in the experiment with dopamine D-1 receptor [2], the “Intrinsic Activity” value was determined as 51 and the half-maximal effective concentration (EC50) is 21000 nM.

Turning to `COc1ccc(CC2Cc3c(ccc(O)c3O)C(CN)O2)cc1` (stereo not drawn) [Example 83], the Ki at dopamine D-2 receptor (setting [3]) was 4500 nM.

On to `CN1CCC2=C(C1)c1ccc(O)c(O)c1CC21CCCCCCCC1` [Example 248], for which the Ki at dopamine D-2 receptor (setting [3]) was found to be 880 nM; on dopamine D-1 receptor [1], 580 nM.

Regarding `NC[C@@H]1O[C@H](C23CC4CC(CC(C4)C2)C3)Cc2c(O)c(O)cc(Br)c21` (relative stereo) [Example 107, 1-Aminomethyl-8-bromo-adamantyl-5,6-dihydroxy-3,4-dihydro-1H-2-benzopyran Hydrobromide], the inhibition constant (Ki) on dopamine D-2 receptor (setting [3]) is above 10000 nM; at dopamine D-1 receptor [1] it was 2500 nM.

`NC[C@@H]1O[C@H](C2CCCCCCC2)Cc2c1ccc(O)c2O` (relative stereo) [Example 76]: on dopamine D-2 receptor (setting [3]), the Ki is 440 nM.
